In patent US8796256B2 (Janssen Pharmaceutica NV, priority 2010, dated 2014):

Target: T1, ERR1 (also known as ERR-α or ERR-1) (Homo sapiens, UniProt P11474)
T1 sequence (P11474 193-421 limits assumed): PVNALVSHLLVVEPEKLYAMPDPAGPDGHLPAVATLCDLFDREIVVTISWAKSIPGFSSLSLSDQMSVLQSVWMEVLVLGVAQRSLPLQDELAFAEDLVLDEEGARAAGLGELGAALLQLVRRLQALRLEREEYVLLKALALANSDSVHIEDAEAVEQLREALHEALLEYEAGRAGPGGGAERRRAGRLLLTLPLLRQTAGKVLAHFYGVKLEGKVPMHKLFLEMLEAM
Assay: TR-FRET assay (disruption of co-activator peptide binding to ERR1 LBD)
Assay type: biochemical
Conditions: 6 nM 6His-ERR1LBD, 6 nM GST-SRC-2 peptide; average of 3 independent experiments
In short: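 His-tagged ERR1 ligand-binding domain and GST-labelled SRC-2 peptide, each 6 nM, equilibrated at 25° C for 4-18 h in Tris pH 8/Hepes/KCl/DTT/delipidated BSA buffer. Compound-induced loss of co-activator binding read as Eu cryptate→XL665 energy transfer; values from hyperbolic curve fits averaged over 3 independent runs.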

CN(CCN1C(=O)S/C(=C\c2ccc3c(cnn3Cc3ccc(Cl)cc3C(F)(F)F)c2)C1=O)S(=O)(=O)N1CCCC1 [Compound 396, N-{2-[(5Z)-5-({1-[4-Chloro-2-(trifluoromethyl)benzyl]-1H-indazol-5-yl}methylidene)-2,4-dioxo-1,3-thiazolidin-3-yl]ethyl}-N-methylpyrrolidine-1-sulfonamide]
EC50: 112 nM

CN(CCN1C(=O)S/C(=C\c2ccc3c(cnn3Cc3ccc(Cl)cc3C(F)(F)F)c2)C1=O)S(C)(=O)=O [Compound 397, N-{2-[(5Z)-5-({1-[4-Chloro-2-(trifluoromethyl)benzyl]-1H-indazol-5-yl}methylidene)-2,4-dioxo-1,3-thiazolidin-3-yl]ethyl}-N-methylmethanesulfonamide]
EC50: 23 nM

O=C1S/C(=C\c2ccc3c(cnn3Cc3ccc(Cl)cc3C(F)(F)F)c2)C(=O)N1CCNS(=O)(=O)N1CCOCC1 [Compound 398, N-{2-[(5Z)-5-({1-[4-Chloro-2-(trifluoromethyl)benzyl]-1H-indazol-5-yl}methylidene)-2,4-dioxo-1,3-thiazolidin-3-yl]ethyl}morpholine-4-sulfonamide]
EC50: 10 nM

O=C1S/C(=C\c2ccc3c(cnn3Cc3ccc(Cl)cc3C(F)(F)F)c2)C(=O)N1CCNS(=O)(=O)N1CCCC1 [Compound 399, N-{2-[(5Z)-5-({1-[4-Chloro-2-(trifluoromethyl)benzyl]-1H-indazol-5-yl}methylidene)-2,4-dioxo-1,3-thiazolidin-3-yl]ethyl}pyrrolidine-1-sulfonamide]
EC50: 79 nM

Nc1nc(CN2C(=O)S/C(=C\c3ccc4c(cnn4Cc4ccc(Cl)cc4C(F)(F)F)c3)C2=O)cs1 [Compound 400, (5Z)-3-[(2-Amino-1,3-thiazol-4-yl)methyl]-5-({1-[4-chloro-2-(trifluoromethyl)benzyl]-1H-indazol-5-yl}methylidene)-1,3-thiazolidine-2,4-dione]
EC50: 62 nM

O=C1S/C(=C\c2ccc3c(cnn3Cc3ccc(Cl)cc3C(F)(F)F)c2)C(=O)N1Cc1ncon1 [Compound 401, (5Z)-5-({1-[4-Chloro-2-(trifluoromethyl)benzyl]-1H-indazol-5-yl}methylidene)-3-(1,2,4-oxadiazol-3-ylmethyl)-1,3-thiazolidine-2,4-dione]
EC50: 36 nM

Cn1cnc(CN2C(=O)S/C(=C\c3ccc4c(cnn4Cc4ccc(Cl)cc4C(F)(F)F)c3)C2=O)c1 [Compound 402, (5Z)-5-({1-[4-Chloro-2-(trifluoromethyl)benzyl]-1H-indazol-5-yl}methylidene)-3-[(1-methyl-1H-imidazol-4-yl)methyl]-1,3-thiazolidine-2,4-dione]
EC50: 48 nM

O=C1S/C(=C\c2ccc3c(cnn3Cc3ccc(Cl)cc3C(F)(F)F)c2)C(=O)N1Cc1ncc[nH]1 [Compound 403, (5Z)-5-({1-[4-Chloro-2-(trifluoromethyl)benzyl]-1H-indazol-5-yl}methylidene)-3-(1H-imidazol-2-ylmethyl)-1,3-thiazolidine-2,4-dione]
EC50: 20 nM

O=C1S/C(=C\c2ccc3c(cnn3Cc3ccc(Cl)cc3C(F)(F)F)c2)C(=O)N1Cc1nccn1Cc1ncc[nH]1 [Compound 404, (5Z)-5-({1-[4-Chloro-2-(trifluoromethyl)benzyl]-1H-indazol-5-yl}methylidene)-3-{[1-(1H-imidazol-2-ylmethyl)-1H-imidazol-2-yl]methyl}-1,3-thiazolidine-2,4-dione]
EC50: 21 nM

O=C1S/C(=C\c2ccc3c(cnn3Cc3ccc(Cl)cc3C(F)(F)F)c2)C(=O)N1Cc1c[nH]cn1 [Compound 405, (5Z)-5-({1-[4-Chloro-2-(trifluoromethyl)benzyl]-1H-indazol-5-yl}methylidene)-3-(1H-imidazol-4-ylmethyl)-1,3-thiazolidine-2,4-dione]
EC50: 48 nM

O=C(O)CN1C(=O)S/C(=C\c2ccc3c(c2)c(F)nn3Cc2ccc(Cl)cc2C(F)(F)F)C1=O [Compound 406, [(5Z)-5-({1-[4-Chloro-2-(trifluoromethyl)benzyl]-3-fluoro-1H-indazol-5-yl}methylidene)-2,4-dioxo-1,3-thiazolidin-3-yl]acetic acid]
EC50: 13 nM

O=C(O)CN1C(=O)S/C(=C\c2ccc3c(c2)c(Br)nn3Cc2ccc(Cl)cc2C(F)(F)F)C1=O [Compound 407, [(5Z)-5-({3-Bromo-1-[4-chloro-2-(trifluoromethyl)benzyl]-1H-indazol-5-yl}methylidene)-2,4-dioxo-1,3-thiazolidin-3-yl]acetic acid]
EC50: 7 nM

O=C(O)CN1C(=O)S/C(=C\c2ccc3c(c2)c(-c2ccc(F)cc2)nn3Cc2ccc(Cl)cc2C(F)(F)F)C1=O [Compound 408, [(5Z)-5-({1-[4-Chloro-2-(trifluoromethyl)benzyl]-3-(4-fluorophenyl)-1H-indazol-5-yl}methylidene)-2,4-dioxo-1,3-thiazolidin-3-yl]acetic acid]
EC50: 153 nM

O=C1S/C(=C\c2ccc3c(cnn3Cc3ccc(Cl)cc3C(F)(F)F)c2)C(=O)N1CC1COS(=O)(=O)N1 (stereo not shown) [Compound 409, (5Z)-5-({1-[4-Chloro-2-(trifluoromethyl)benzyl]-1H-indazol-5-yl}methylidene)-3-[(2,2-dioxido-1,2,3-oxathiazolidin-4-yl)methyl]-1,3-thiazolidine-2,4-dione]
EC50: > 10000 nM

CS(=O)(=O)n1ccnc1CN1C(=O)S/C(=C\c2ccc3c(cnn3Cc3ccc(Cl)cc3C(F)(F)F)c2)C1=O [Compound 410, (5Z)-5-({1-[4-Chloro-2-(trifluoromethyl)benzyl]-1H-indazol-5-yl}methylidene)-3-{[1-(methylsulfonyl)-1H-imidazol-2-yl]methyl}-1,3-thiazolidine-2,4-dione]
EC50: 25 nM

O=C1S/C(=C\c2ccc3c(cnn3Cc3ccc(Cl)cc3C(F)(F)F)c2)C(=O)N1Cc1nccn1S(=O)(=O)C(F)(F)F [Compound 411, (5Z)-5-({1-[4-Chloro-2-(trifluoromethyl)benzyl]-1H-indazol-5-yl}methylidene)-3-({1-[(trifluoromethyl)sulfonyl]-1H-imidazol-2-yl}methyl)-1,3-thiazolidine-2,4-dione]
EC50: 29 nM

O=C1S/C(=C\c2ccc3c(cnn3Cc3ccc(Cl)cc3C(F)(F)F)c2)C(=O)N1Cc1nccn1S(=O)(=O)N1CCCC1 [Compound 412, (5Z)-5-({1-[4-Chloro-2-(trifluoromethyl)benzyl]-1H-indazol-5-yl}methylidene)-3-{[1-(pyrrolidin-1-ylsulfonyl)-1H-imidazol-2-yl]methyl}-1,3-thiazolidine-2,4-dione]
EC50: 38 nM

CC(=O)Nc1nc(CN2C(=O)S/C(=C\c3ccc4c(cnn4Cc4ccc(Cl)cc4C(F)(F)F)c3)C2=O)cs1 [Compound 413, N-(4-{[(5Z)-5-({1-[4-Chloro-2-(trifluoromethyl)benzyl]-1H-indazol-5-yl}methylidene)-2,4-dioxo-1,3-thiazolidin-3-yl]methyl}-1,3-thiazol-2-yl)acetamide]
EC50: 312 nM

O=C1S/C(=C\c2ccc3c(cnn3Cc3ccc(Cl)cc3C(F)(F)F)c2)C(=O)N1Cc1csc(NS(=O)(=O)C(F)(F)F)n1 [Compound 414, N-(4-{[(5Z)-5-({1-[4-Chloro-2-(trifluoromethyl)benzyl]-1H-indazol-5-yl}methylidene)-2,4-dioxo-1,3-thiazolidin-3-yl]methyl}-1,3-thiazol-2-yl)-1,1,1-trifluoromethanesulfonamide]
EC50: 109 nM

O=C1S/C(=C\c2ccc3c(cnn3Cc3ccc(Cl)cc3C(F)(F)F)c2)C(=O)N1CC(=O)N1CCNS1(=O)=O [Compound 415]
EC50: 12 nM

N#Cc1nn(Cc2ccc(Cl)cc2C(F)(F)F)c2ccc(/C=C3\SC(=O)N(CC(=O)O)C3=O)cc12 [Compound 416, [(5Z)-5-({1-[4-Chloro-2-(trifluoromethyl)benzyl]-3-cyano-1H-indazol-5-yl}methylidene)-2,4-dioxo-1,3-thiazolidin-3-yl]acetic acid]
EC50: 35 nM

NC(=O)c1nn(Cc2ccc(Cl)cc2C(F)(F)F)c2ccc(/C=C3\SC(=O)N(CC(=O)O)C3=O)cc12 [Compound 417, [(5Z)-5-({3-Carbamoyl-1-[4-chloro-2-(trifluoromethyl)benzyl]-1H-indazol-5-yl}methylidene)-2,4-dioxo-1,3-thiazolidin-3-yl]acetic acid]
EC50: 50 nM

Cc1nn(C)c(Cl)c1S(=O)(=O)NCCN1C(=O)S/C(=C\c2ccc3c(cnn3Cc3ccc(Cl)cc3C(F)(F)F)c2)C1=O [Compound 418, 5-Chloro-N-{2-[(5Z)-5-({1-[4-chloro-2-(trifluoromethyl)benzyl]-1H-indazol-5-yl}methylidene)-2,4-dioxo-1,3-thiazolidin-3-yl]ethyl}-1,3-dimethyl-1H-pyrazole-4-sulfonamide]
EC50: 83 nM

Cc1noc(C)c1S(=O)(=O)NCCN1C(=O)S/C(=C\c2ccc3c(cnn3Cc3ccc(Cl)cc3C(F)(F)F)c2)C1=O [Compound 419, N-{2-[(5Z)-5-({1-[4-Chloro-2-(trifluoromethyl)benzyl]-1H-indazol-5-yl}methylidene)-2,4-dioxo-1,3-thiazolidin-3-yl]ethyl}-3,5-dimethylisoxazole-4-sulfonamide]
EC50: 115 nM

CC(=O)Nc1nc(C)c(S(=O)(=O)NCCN2C(=O)S/C(=C\c3ccc4c(cnn4Cc4ccc(Cl)cc4C(F)(F)F)c3)C2=O)s1 [Compound 420, N-[5-({2-[(5Z)-5-({1-[4-Chloro-2-(trifluoromethyl)benzyl]-1H-indazol-5-yl}methylidene)-2,4-dioxo-1,3-thiazolidin-3-yl]ethyl}sulfamoyl)-4-methyl-1,3-thiazol-2-yl]acetamide]
EC50: 28 nM
